# According to US20190350890A1, “COMPOSITION FOR PREVENTING OR TREATING HEPATITIS CONTAINING MONOACETYL DIACYLGLYCEROL COMPOUND” (ENZYCHEM LIFESCIENCES CORPORATION, priority 2016, published 2019):
# Experiments:
# [1] = tested on: PKCθ; experiment: Western blot assay, phospho-PKC isotypes in HL-60 cells: PKCθ; type: cell-based; conditions: IL-4 stimulation
# Experimental: (§1) HL-60 cells were plated in 12-well plates (1×10^6/well) and treated as described above. Total protein extracts were immunoblotted with phospho-PKC homologous proteins (δ, θ, ξ/λ, α/β) (Cell Signaling) and GAPDH Abs (Santa Cruz Biotechnology Inc., CA). Detection was performed using Immobilon Western Chemiluminescent HRP Substrate (Millipore Corporation, Billerica, Mass.).
# [2] = tested on: HL-60 cells; experiment: Neutrophil adsorption analysis on fibronectin; type: cell-based; conditions: 100, 10, and 1 ug/mL of PLAG; 10 ng/ml of IL-4; WST-1 assay and cell number
# Excerpt: In order to determine the effect of PLAG on neutrophil adsorption of fibronectin, 24-well tissue culture plates were coated with fibronectin as in previous studies (Wang Y H, Wang W Y, Liao J F, Chen C F, Hou Y C, Liou K T, Chou Y C, et al. Prevention of macrophage adhesion molecule-1 (Mac-1)-dependent neutrophil firm adhesion by taxifolin through impairment of protein kinase-dependent NADPH oxidase activation and antagonism of G protein-mediated calcium influx. Biochem Pharmacol 2004; 67:2251-2262.). The plates were incubated with 25 ug/ml of fibronectin at 37° C. for 2 hours. The unbounded protein was removed by washing, neutrophils were pre-treated with PLAG 2 hours before the experiment, and neutrophil activity was performed with IL-4 for 4 hours. Non-adsorbed neutrophils were eluted by aspiration and washed twice with PBS. Attached neutrophils were determined by calculating the number of cells at the bottom of each well using a homocytometer. The remaining adsorbed cells were stored in an incubator for 18 hours, at which time the cells were exposed to WST-1 reagent (Roche Applied Science) for spectrometric evaluation.
# [3] = tested on: PKC-ξ/λ; experiment: Western blot assay, IL-4-induced PKC phosphorylation; type: cell-based; conditions: dose-dependent; 0.1, 1, 10, 100 ug/mL, 2 hours before IL-4 for 1 hour
# Experimental: (§2) Hep3B cells were plated in 12 well plates (2.5×10^5 cells/well) and treated with PLAG at various concentrations (0.1, 1, 10, 100 ug/mL), and after 2 hours, activated with IL-4 for 1 hour. Whole protein extracts were immunoblotted with phospho-STAT6, STAT6, phospho-JAK1 and phosphor-PKCξ/λ Abs (cell signaling).
# as §1
# [4] = tested on: hepatitis induced by concanavalin A; experiment: Liver tissue cytokine analysis (ELISA, RT-PCR) in Con A-induced hepatitis mice; type: in vivo, Balb/c mice
# Experimental: (§3) In order to confirm the preventive and therapeutic effects of hepatitis by 1-palmitoyl-2-linoleoyl-3-acetylglycerol (EC-18 or PLAG), the experiment was performed using an attenuation model of hepatitis induced by concanavalin A (hereinafter, referred to as ConA). As an experimental model, 10-week-old Balb/c mice (Koatech, Korea) were maintained under specific pathogen free (SPF) environment and used, and PLAG and PLG (ENZYCHEM Lifesciences, Korea) were prepared before or after in vivo or in vitro treatment. In addition, Hep3B, HepG2, EL-4 and HL-60 cell lines (American Type Culture Collection, ATCC) were incubated under 5% CO2 and a temperature of 37° C. The values in the comparison between groups performed in vivo were analyzed using one analysis method of the analysis of variance (ANOVA), and the values in the comparison of two experimental groups performed in vitro were analyzed using independent student's t test. Statistical significance was assumed to be p<0.05.
# (§4) Mice were randomly divided into three groups: control group, Con A-treated group, and PLAG-pretreated group. The Con A and PLAG were all dissolved in PBS (phosphate buffer saline) and used. PBS or PLAG was orally administered to the mice, and after 2 hours, 20 mg/kg BW of Con A was intravenously injected into each of the Con A-treated group and the PLAG-pretreated group. Thereafter, PLAG was orally administered to mice at a dose of 100 mg/kg BW. Here, BW means body weight.
# (§5) Blood samples were obtained from cardiac punctures 18 hours after administration of Con A in the mice of Example and centrifuged at 3,000 rpm for 10 minutes. For the measurement of cytokines in liver tissue ligate liquids, the animals were sacrificed and the liver was washed with PBS. The liver was homogenized and filtered using a 70 μm mesh cell strainer (BD Falcon cell strainer, BD Biosciences, Bedford, Mass.) in PBS. The supernatant was also collected by centrifugation at a rate of 2,000 rpm for 5 minutes. The lower cell pellet was resuspended in PBS and analyzed for complete blood cell count (CBC). Plasma samples and supernatants of liver lysate were maintained at minus 20° C. until cytokines were measured. The concentrations of IL-6, IL-10, IL-4, MIP-2 and IFNγ were detected using Set ELISA.
# (§6) Total RNA was isolated from the liver homogenate with TRIzol reagent (Incitrogen, Carlsbad, Calif.). HL-60 cells were plated in 12-well plates (1×10^6/well) and treated in the same manner as in Experimental Example 4. cDNA was synthesized from total cellular RNA using M-MLV reverse transcriptase and oligo-dT (Promega, Madison, Wis.).
# (§7) The amount of cDNA amplification of the reaction samples was confirmed by 2% agarose gel (Roche Applied Science, Salt Lake City, Utah) electrophoresis.
# [5] = tested on: STAT6; experiment: Luciferase reporter gene analysis, STAT6 transcriptional activity in HepG2 and Hep3B cells; type: cell-based; conditions: 10 and 100 ug/ml of PLAG; 10 ng/ml IL-4 for 6 hours
# Experimental: HepG2 and Hep3B cells were transfected into reporter luciferase plasmids containing four pairs of STAT6 binding sites (p4xSTAT6-Luc2P; Addgene, Cambridge, Mass.), and the reporter vector was transfected into the Attractene reagent and cell line. For the activity of STAT6 reporter vectors, 10 ng/ml of IL-4 was treated with cells for 6 hours, and the luciferase activity was measured by a luminometer using a luciferase assay system. The luciferase activity of each sample was normalized to those corresponding to the PLAG transduced samples.
# [6] = tested on: hepatitis induced by concanavalin A; experiment: Histological analysis of liver (hematoxylin-eosin, anti-neutrophil antibody staining); type: in vivo, Balb/c mice
# Experimental: as §3, §4
# The site of liver was collected from a mouse 8 hours after administration of Con A to the mouse of Example 1. The site of liver was fixed in 10% neutral buffered formalin, embedded in paraffin and cut to a thickness of 5 um. After removing the paraffin and rehydration, the flakes were stained with hematoxylin and eosin. In addition, for identification of neutrophils, the site of liver was stained with anti-mouse neutrophil antibody. All samples were evaluated histologically under a Leica (Leica, Wetzlar, Germany) optical microscope, and digital images were taken at ×200 magnification.
# [7] = tested on: Hep3B cells; experiment: WST assay, cytotoxicity in Hep3B cells; type: cell-based; conditions: 24 hours of incubation, PLAG 1,000 ug/mL or greater
# Experimental: (§8) FIG. 7 is a graph showing the results of WST assay of […] depending on the dose of PLAG when the composition of the present invention was administered, and FIG. 8 is a graph showing the inhibitory effect of IL-4-induced STAT6 activity and related signaling mechanism depending on the dose of PLAG when the composition of the present invention was administered. […] HepG2 and Hep3B were used as liver cells, and HL-60 was used as neutrophil cells. Cytotoxicity of EC-18 in liver cells and leukocytes was confirmed by WST assay. Survival of Hep3B and HL-60 cells was not affected during 24 hours of incubation with PLAG each having a concentration of 1,000 ug/mL or greater (see FIG. 7). Based on the results of the WST assay, 100, 10, and 1 ug/mL of PLAG were used for the cells. The activities of PKC-ξ/λ, JAK1 and STAT6 played an important role in ConA-induced hepatitis, and these kinases were increased by IL-4. […] Therefore, it can be seen that PLAG can effectively control IL-4-induced hepatitis by alleviating PKC-ξ/λ activity.
# [8] = tested on: HL-60 cells; experiment: RT-PCR analysis of IL-8 and VCAM-1 expression in IL-4-stimulated HL-60 cells; type: cell-based, human; conditions: HL-60 cells stimulated by IL-4, RT-PCR, dose-dependent
# Experimental: as §6, §7
# [9] = tested on: HL-60 cells; experiment: WST assay, cytotoxicity in HL-60 cells; type: cell-based; conditions: 24 hours of incubation, PLAG 1,000 ug/mL or greater
# Experimental: as §8
# [10] = tested on: PKCδ; experiment: Western blot assay, phospho-PKC isotypes in HL-60 cells: PKCδ; type: cell-based; conditions: IL-4 stimulation
# Experimental: as §1
# [11] = tested on: STAT6; experiment: Western blot assay, IL-4-induced STAT6 phosphorylation in Hep3B cells; type: cell-based; conditions: for phosphorylation of STAT6, comparison of PLAG and PLG: Hep3B cells, anti-phospho-STAT6 Western blot
# Experimental: as §2
# [12] = tested on: hepatitis induced by concanavalin A; experiment: Hematological analysis (CBC) of whole blood and liver samples; type: in vivo, Balb/c mice; conditions: PLAG additionally administered
# Experimental: as §3, with “Statistical significance was assumed to be p<0.05.” left out
# Whole blood and liver samples were collected from the mice of Example 1 18 hours after administration of Con A. The cleaved liver collected from the mouse was homogenized as described in Experimental Example 1. Complete blood count (CBC) analysis included whole white blood cell quantification, part of neutrophils and lymphocytes of whole white blood cells, and hematology analysis was performed using Mindray BC 5300 (Shenzhen Mindray Bio-medical Electronics, China).
# [13] = tested on: hepatitis induced by concanavalin A; experiment: Plasma cytokine analysis (ELISA) in Con A-induced hepatitis mice; type: in vivo, Balb/c mice; conditions: Con A 20 mg/kg BW i.v., PLAG oral 100 mg/kg BW, blood 18 hours after Con A
# Experimental: as §3, §4, §5
# [14] = tested on: PKCα/β; experiment: Western blot assay, phospho-PKC isotypes in HL-60 cells: PKCα/β; type: cell-based; conditions: IL-4 stimulation
# Experimental: as §1
# [15] = ConA-administered mice, PLAG further administered, vs ConA group
# [16] = RT-PCR, ConA-induced liver tissue
structure (smiles),measurement,setting,value
"CCCCC/C=C\C/C=C\CCCCCCCC(=O)OC(COC(C)=O)COC(=O)CCCCCCCCCCCCCCC (racemic) [PLAG, 1-palmitoyl-2-linoleoyl-3-acetyl-rac-glycerol]",relaxation of the activity of PKCθ,[1],affects the relaxation
same,adsorption of HL-60 to coated fibronectin,[2],significantly reduced
same,phosphorylation of PKC induced by IL-4,[3],considerably alleviated
same,expression of IL-4 (protein and mRNA) in liver tissue,[4]; [15],significantly reduced
same,expression of MIP-2 (protein and mRNA) in liver tissue,[4]; [15],significantly reduced
same,expression of CXCR4 mRNA in liver tissue,[4]; [16],down-regulates
same,expression of adsorbed molecules ICAM-1 and VCAM in liver tissue,[4]; [16],does not affect
same,STAT6 transcriptional activity,[5],effectively prevented
same,neutrophils in liver enhanced by stimulation with ConA,"[6]; anti-neutrophil antibody staining, liver 8 hours after Con A",effectively alleviated
same,"pathological changes of liver (hepatocyte damage, neutrophil infiltration, necrotic foci)","[6]; hematoxylin-eosin staining, PLAG 100 mg/kg, 8 hours after ConA i.v.",markedly reduced
same,liver cell damage,"[6]; liver 8 hours after Con A, immunohistological staining, vs ConA-treated liver tissue",hardly damaged
same,survival of Hep3B cells,[7],not affected
same,expression of IL-8,[8],effectively suppressed
same,expression of VCAM-1,[8],effectively suppressed
same,survival of HL-60 cells,[9],not affected
same,relaxation of the activity of PKCδ,[10],affects the relaxation
same,"phosphorylation of STAT6, comparison of PLAG and PLG",[11],significantly reduced
same,phosphorylation of STAT6 induced by IL-4,"[11]; dose-dependent, 0.1, 1, 10, 100 ug/mL, 2 hours before IL-4 for 1 hour",considerably alleviated
same,circulating neutrophils in blood,[12]; CBC 18 hours after Con A,significantly increased
same,number of neutrophils present in the liver,[12]; CBC of liver homogenate 18 hours after Con A,significantly reduced
same,IL-4 in mouse plasma,[13]; vs Con A group,decreased
same,IL-6 in mouse plasma,[13]; vs Con A group,decreased
same,IL-10 in mouse plasma,[13]; vs Con A group,decreased
same,MIP-2 in mouse plasma,[13]; vs Con A group,decreased
same,concentration of IFNγ in plasma,[13]; vs mice not treated with PLAG,not significantly reduced
same,relaxation of PKCα/β activity,[14],did not affect
"CCCCC/C=C\C/C=C\CCCCCCCC(=O)OC(CO)COC(=O)CCCCCCCCCCCCCCC (stereo not drawn) [PLG, reference compound]","phosphorylation of STAT6, comparison of PLAG and PLG",[11],not altered
